According to article PMC11946908, “Plasmodium blood stage development requires the chromatin remodeller Snf2L” (Nature, 2025):

Assays:
Type in all cases: biochemical
PfSnf2L [1] = biological target: T1, PfSnf2L (Plasmodium falciparum, UniProt Q8IIW0); test: ADP biosensor (TMR-ParM) ATPase assay, single dose response; settings: 0.4 µM enzyme, 125 µM ATP, plasmid DNA, 5 µM H4 peptide, 1.5 mM MgCl2, pH 8.6, 28 °C; allosteric
T1 construct: gene PF3D7_1104200; amino acids 250-1426, C-terminal 10xHis tag, baculovirus, Sf21 insect cells
T1 sequence (Q8IIW0 250-1426): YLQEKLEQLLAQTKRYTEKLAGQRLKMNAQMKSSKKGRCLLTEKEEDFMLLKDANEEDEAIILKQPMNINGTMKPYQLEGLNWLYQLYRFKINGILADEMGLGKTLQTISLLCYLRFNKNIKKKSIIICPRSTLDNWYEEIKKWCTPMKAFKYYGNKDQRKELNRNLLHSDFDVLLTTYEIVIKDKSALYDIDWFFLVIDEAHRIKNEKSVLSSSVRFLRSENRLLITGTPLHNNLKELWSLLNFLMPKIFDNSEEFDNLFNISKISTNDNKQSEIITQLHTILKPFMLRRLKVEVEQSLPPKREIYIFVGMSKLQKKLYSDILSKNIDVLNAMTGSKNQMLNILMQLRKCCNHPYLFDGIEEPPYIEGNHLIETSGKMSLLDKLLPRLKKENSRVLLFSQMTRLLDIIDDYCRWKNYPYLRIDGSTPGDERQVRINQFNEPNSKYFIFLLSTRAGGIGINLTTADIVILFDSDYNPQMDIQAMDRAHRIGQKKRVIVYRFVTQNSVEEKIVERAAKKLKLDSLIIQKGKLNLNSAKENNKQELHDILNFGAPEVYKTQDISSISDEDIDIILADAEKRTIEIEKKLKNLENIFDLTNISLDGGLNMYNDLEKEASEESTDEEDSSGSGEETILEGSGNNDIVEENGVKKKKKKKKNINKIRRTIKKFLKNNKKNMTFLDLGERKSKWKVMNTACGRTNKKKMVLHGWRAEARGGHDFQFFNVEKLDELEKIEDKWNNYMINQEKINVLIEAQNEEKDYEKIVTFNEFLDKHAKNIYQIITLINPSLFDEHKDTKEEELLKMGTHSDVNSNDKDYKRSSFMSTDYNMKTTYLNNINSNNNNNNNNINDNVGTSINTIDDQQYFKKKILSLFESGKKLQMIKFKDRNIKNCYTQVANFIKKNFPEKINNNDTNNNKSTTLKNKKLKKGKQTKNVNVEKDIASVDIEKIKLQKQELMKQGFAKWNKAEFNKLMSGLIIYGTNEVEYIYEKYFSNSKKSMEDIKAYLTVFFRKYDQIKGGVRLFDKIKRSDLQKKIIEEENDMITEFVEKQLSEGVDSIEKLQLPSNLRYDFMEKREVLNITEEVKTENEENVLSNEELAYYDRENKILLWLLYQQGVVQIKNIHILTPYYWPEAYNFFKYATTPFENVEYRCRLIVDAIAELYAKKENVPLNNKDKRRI

HsSNF2L = biological target: T2, HsSNF2L (Homo sapiens, UniProt P28370); test: […]-gamma-ATP hydrolysis, thin-layer chromatography; settings: 500 µM ATP, 1.5 mM MgCl2, pH 7.6, 30 °C, with or without mononucleosomes
T2 construct: gene SMARCA1; 6xHis tag, baculovirus, Sf21 insect cells
T2 sequence (P28370 whole entry): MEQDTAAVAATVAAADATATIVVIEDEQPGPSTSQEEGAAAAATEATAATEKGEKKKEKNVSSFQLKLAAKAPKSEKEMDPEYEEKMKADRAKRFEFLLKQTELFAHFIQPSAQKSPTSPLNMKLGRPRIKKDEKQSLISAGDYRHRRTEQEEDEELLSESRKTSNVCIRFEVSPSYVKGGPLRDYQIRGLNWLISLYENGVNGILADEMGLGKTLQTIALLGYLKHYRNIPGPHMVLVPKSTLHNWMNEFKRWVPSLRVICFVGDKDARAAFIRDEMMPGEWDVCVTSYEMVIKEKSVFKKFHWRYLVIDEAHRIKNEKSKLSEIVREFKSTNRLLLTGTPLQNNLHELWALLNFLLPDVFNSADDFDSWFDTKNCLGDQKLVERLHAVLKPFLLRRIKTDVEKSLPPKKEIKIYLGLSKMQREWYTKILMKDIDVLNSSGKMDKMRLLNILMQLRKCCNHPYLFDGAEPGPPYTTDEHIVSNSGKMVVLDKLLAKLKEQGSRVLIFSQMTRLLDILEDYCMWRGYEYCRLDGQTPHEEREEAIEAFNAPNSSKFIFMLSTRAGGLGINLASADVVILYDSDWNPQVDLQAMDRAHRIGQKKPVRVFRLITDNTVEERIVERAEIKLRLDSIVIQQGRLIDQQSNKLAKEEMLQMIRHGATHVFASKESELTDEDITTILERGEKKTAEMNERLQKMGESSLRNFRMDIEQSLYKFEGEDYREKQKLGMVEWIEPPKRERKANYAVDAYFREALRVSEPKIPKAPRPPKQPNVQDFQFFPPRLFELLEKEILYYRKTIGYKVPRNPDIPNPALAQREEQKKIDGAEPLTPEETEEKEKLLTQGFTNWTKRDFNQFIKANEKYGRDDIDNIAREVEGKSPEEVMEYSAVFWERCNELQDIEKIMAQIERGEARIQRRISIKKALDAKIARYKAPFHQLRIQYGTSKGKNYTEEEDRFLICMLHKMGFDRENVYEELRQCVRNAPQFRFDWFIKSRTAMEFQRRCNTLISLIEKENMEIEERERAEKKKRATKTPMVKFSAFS

PfSnf2L [2] = biological target: T1, PfSnf2L; test: as above; settings: 500 µM ATP, 1.5 mM MgCl2, pH 7.6, 30 °C, with or without mononucleosomes

For `CCCCCCCCCCCCCCCC[n+]1ccn(Cc2ccccc2)c1C` [NH125], which “ADP biosensor (TMR-ParM) ATPase assay, single dose response” value (PfSnf2L [1]) is on record?
The value was “ATP hydrolysis kinetic of PfSnf2L in presence of NH125 in varying concentrations”.

Which results are given for `Nc1ncnc2c1ncn2[C@@H]1O[C@H](COP(=O)(O)OP(=O)(O)OP(=O)(O)O)[C@@H](O)[C@H]1O` [ATP]?
32P-gamma-ATP hydrolysis, thin-layer chromatography (HsSNF2L): The non-stimulated or nucleosome-stimulated ATP hydrolysis rate of PfSnf2L/HsSNF2L; 32P-gamma-ATP hydrolysis, thin-layer chromatography (PfSnf2L [2]): The non-stimulated or nucleosome-stimulated ATP hydrolysis rate of PfSnf2L/HsSNF2L
